Where “and” joins values, the source holds several entries; their conditions need not be identical. Identical values can stand only once.
Legend:
[1] = Dispersibility in carriers (caprylic/capric triglyceride, cyclopentasiloxane, deionized water); assay type: physicochemical
Procedure: a) Approximately 7.2 g of a sample of a material of the present invention comprising an undecyl ascorbate group on one end of the short chain dimethylsiloxane (Formula=Si(CH3)3-[Si(CH3)2]8—[CH2]10—COO-Ascorbate), with a calculated molecular weight of 1082) was weighed into a glass vial. Liponate CG (INCI name: caprylic/capric triglyceride) was added to the vial to bring the net weight to 20 g. The vial was warmed in a water bath set at 50° C. […] A sample of ascorbyl palmitate obtained from DSM was also tested for dispersibility in Liponate CG. Several concentrations were tested. The lowest concentration tested was made by weighing approximately 2.3 g of ascorbyl palmitate into a glass vial and then adding caprylic/capric triglyceride to bring the net weight to 20 g. […] The silicone was added to the vial to bring the net weight to 20 g. […] This mixture thickened upon cooling to room temperature. To determine if the mixture was a stable dispersion or an unstable suspension, the mixture was centrifuged in a bench top laboratory centrifuge at 3000 rpm for approximately 30 minutes. […] The amount of white material was small (much less than the amount of siloxane undecyl ascorbate that was used) and it was later determined that the white material was most likely unreacted ascorbic acid. A sample of ascorbyl palmitate obtained from DSM was tested for dispersibility in Dow Corning® 245 Fluid. Several concentrations were tested. The lowest concentration tested was made by weighing approximately 2.3 g of ascorbyl palmitate into a glass vial and then adding Dow Corning® 245 Fluid to bring the net weight to 20 g. […] Deionized water was added to bring the total net weight to 3.5 g. The vial was placed in a water bath set at 60° C. and the disiloxane material began to disperse after a few minutes. The vial was pulled out of the water bath periodically over the next 10-15 minutes. […] Upon cooling the vial was examined to determine if all of the test material had been dispersed. It was difficult to tell due to the hazy appearance of the sample. The experiment was repeated with approximately 0.17 of the disiloxane diluted to 3.5 g with deionized water. […] Ascorbyl palmitate obtained from DSM was tested for dispersibility in deionized water.

[2] = test system: Melanoderm tissue model MEL 300 A; assay: Melanin content / skin lightening assay in MelanoDerm tissue model; assay type: cell-based, human; settings: for Melanin concentration vs. water: Day 10, after 6 applications; for Melanin Concentration at Day 10 (Avg.): after 6 applications, 10 μL in DMI (kojic acid 25 μL, 1% in water)
Excerpt: (§1) This example illustrates cell viability properties and efficacy of skin lightening formulations according to the present invention. For purposes of these examples, DP2 and DP15 both refer to a bis-ascorbyl ester of a (10-carboxydecyl)-terminated dimethylsiloxane, but with the former having two degrees of polymerization, and the latter having an average of 15 degrees of polymerization (15+/−5). In particular, three formulations according to the present invention, water (a negative control), 1% kojic acid (Sigma, Wis.) in water (positive control), and 2.3% ascorbyl palmitate in DMI (dimethyl isosorbide from Uniqema Americas, representative of a currently commercially available skin-lightening compound), were assayed and compared for cell viability and skin lightening efficacy (see Table 4). The assays were carried out using Melanoderm tissue model MEL 300 A cell line (MelanoDerm™ tissue model available from MatTek, Ashland, Mass.). This melanoderm model consists of normal, human-derived epidermal keratinocytes and melanocytes that have been co-cultured to form a multilayer, highly differentiated model of human epidermis.
Table 6 (see FIG. 4(a)) sets forth the […] after 6 applications of each formulation as indicated. Melanin concentration (ug/ml) was lower (p<0.05) in the positive control (kojic acid) and in Ascorbyl palmitate, DP2, and DP2+ascorbic acid. Table 7 (see FIG. 4(b) also sets forth the melanocyte concentration on Day 10, after six applications of the test formulations. Melanin concentration (ug/ml) was higher (p<0.05) in DP2, with no difference from DP2+ascorbic acid or DPI 5. However, p value for DP15 had high variability and statistical difference was borderline (p=0.06)

[3] = test system: Melanoderm tissue model MEL 300 A; assay: Viability by MTT assay (MatTek MTT ET-50 protocol); assay type: cell-based, human; settings: for MTT reading (individual readings): listed as DP2/DMI
Excerpt: as §1
Duplicate samples of each of the formulations in Table 4 were dosed and tested for 48 hours for cell viability by MTT assay (MatTek MTT ET-50 protocol). The volume of water and kojic acid used was 25 ul.

[4] = approximately 2.3 g brought to 20 g (lowest concentration), 50° C. to 90° C. for 20-30 minutes
[5] = first duplicate sample, 10 uL dose, 48 hours
[6] = second duplicate sample, 10 uL dose, 48 hours

## CCCCCCCCCCCCCCCC(=O)OC[C@H](O)[C@H]1OC(=O)C(O)=C1O [Ascorbyl Palmitate, Ascorbyl palmitate, reference compound]
[1]; [4]
  dispersibility in Dow Corning 245 Fluid (cyclopentasiloxane): would not disperse
  dispersibility in Liponate CG (caprylic/capric triglyceride): would not disperse
[1]; concentrations comparable to those tested for the disiloxane test material
  dispersibility in deionized water: not dispersible
[2]; p<0.05
  Melanin concentration vs. water: lower
[2]
  Melanin Concentration at Day 10 (Avg.): 34.14 µg/mL
[3]; human, 48 h, 2.3 %
  % Viability (total average): 96.04%
  Total average (MTT reading): 1.4495

## C[Si](C)(CCCCCCCCCCC(=O)OCC(O)C1OC(=O)C(O)=C1O)O[Si](C)(C)CCCCCCCCCCC(=O)OCC(O)C1OC(=O)C(O)=C1O (stereo not shown) [DP2, bis-ascorbyl ester of a (10-carboxydecyl)-terminated dimethylsiloxane]
[1]; approximately 0.17 diluted to 3.5 g, warmed in water bath
  dispersibility in deionized water: thinner, less hazy dispersion
[1]; approximately 0.35 g brought to 3.5 g, water bath 60° C.
  dispersibility in deionized water: thick hazy dispersion
[1]; both dispersions, no sign of separation or settling
  stability of dispersions in deionized water: stable for several weeks
[2]; p<0.05
  Melanin concentration vs. water: lower
[2]; Day 10, after six applications, p<0.05
  Melanin concentration vs. ascorbyl palmitate: higher
[2]
  Melanin Concentration at Day 10 (Avg.): 44.40 µg/mL
[3]; 10 uL dose, in DMI
  cytotoxicity: does not cause cytotoxicity
[3]; both duplicate samples, 10 uL dose, 48 hours
  Total average (MTT reading): 1.514
[3]; both duplicate samples, vs water, 10 uL dose, 48 hours
  % Viability (total average): 100.31%
[3]; [5]
  Average (MTT reading): 1.417
  MTT reading (individual readings): 1.433 and 1.401
[3]; first duplicate sample, vs water, 10 uL dose, 48 hours
  % Viability: 91.24%
[3]; in DMI
  cell viability: > 90%
[3]; [6]
  Average (MTT reading): 1.611
  MTT reading (individual readings): 1.619 and 1.603
[3]; second duplicate sample, vs water, 10 uL dose, 48 hours
  % Viability: 109.93%

## O=c1cc(CO)occ1O [Kojic Acid, kojic acid]
[2]; p<0.05
  Melanin concentration vs. water: lower
[2]
  Melanin Concentration at Day 10 (Avg.): 25.20 µg/mL

Source: patent US7871987B2, “Ester derivatives of ascorbic and 2-keto acid saccharides” (Dow Corning Corporation, priority 2004, dated 2011)
